Data: patent US9872928B2, “Diagnostic agent for therapeutic effect on cancer” (HAMAMATSU PHOTONICS K.K., priority 2013, dated 2018)

How the values were obtained:
mitochondria Complex-1 = assay: Evaluation of binding affinity with respect to mitochondria Complex-1 (displacement of [3H]dihydrorotenone tracer from mitochondrial fraction); parameters: species or system rat (brain) and bull (heart); settings: FIG. 1
Description: A dose-response curve of each of a TEST substance and a positive substance was created, and a concentration (IC50 value) at which the TEST substance and the positive substance suppress 50% of bonding between a tracer and mitochondrial Complex-1 (receptor) and an absolute inhibition constant (Ki) were calculated. As the TEST substance, [^18F]BMS-747158-02 (2-tert-butyl-4-chloro-5-[4-(2-fluoro-ethoxymethyl)-benzyloxy]-2H-pyri dazin-3-one, hereinafter also referred to as “BMS”), BCPP-EF, BCPP-BF, BCPP-PF, BCPP-EM, and BMS-P were used. The details will be described below.
An animal tissue was weighed (wet weight), a homogenization buffer solution (10 mmol/L Tris-HCl buffer solution (pH, 7.40) of 250 mmol/L sucrose, 1 mmol/L succinic acid, and 0.2 mmol/L EDTA) was added in an amount twice the amount of the animal tissue, and the mixture was homogenized under ice cooling. Thereafter, the homogenized suspension solution was centrifuged (1200×g, 4° C., 20 minutes). The supernatant was collected and centrifuged (26000×g, 4° C., 15 minutes). […] The protein concentration of the mitochondrial fraction was measured using BCA Protein Assay Reagent (manufactured by Pierce Companies). […]
Measurement was performed according to the following order. Two samples were prepared for each concentration, and each sample was measured three times. […]

[1] = test system: SCCVII cells tumor tissue; assay: Judgment of effect of cancer therapy using PET measurement in cancer-bearing mice after X-ray irradiation; format: in vivo, mouse
Description: When the tumor volume reached about 100 mm^3, a cancer therapy using irradiation with an X-ray was performed to a tumor site of a mouse at a dose ratio of 1.2 Gy/minute using an apparatus which can perform irradiation with an X-ray having an energy of 250 keV (Hitachi Power Solutions MBR-1520R-3). As conditions of irradiation with X-ray, four conditions of non-irradiation (0 Gy, control), 6 Gy, 15 Gy, and 30 Gy were set. Also after the irradiation treatment, the tumor volume was regularly measured according to the above method.
Two days and seven days after irradiation with X-ray, a mouse with a tumor tissue (cancer-bearing mouse) was anesthetized by isoflurane gas. Thereafter, four mice were fixed at one time in a gantry of an animal PET camera (HAMAMATSU SHR-38000). For absorption correction, transmission measurement was performed using a ^68Ge-^68Ga calibration-ray source for 15 minutes. Thereafter, about 5 MBq/0.2 mL of [^18F]BCPP-EF was administered into a tail vein of a mouse, and dynamic emission measurement was performed for 60 minutes. FIG. 3 illustrates a PET image showing an effect of the radiation therapy in the tumor tissue of a mouse.
After the PET measurement was finished, each of the mice was moved to a small animal X-CT (SHIMADZ Clairvivo CT) with a fixed stand while being anesthetized, and CT measurement was performed for ten minutes. A form image (X-CT image) obtained by the CT measurement was collected, a PET accumulated image 40 to 60 minutes after administration of [^18F]BCPP-EF was superimposed on the X-CT image, and a PET image of a cancer tissue was identified.
An interest region was set on the PET image of the cancer tissue, and a value normalized with a body weight of an individual and an administration radiation dose was used as an accumulation amount of [^18F]BCPP-EF in the cancer tissue. The results are illustrated in FIG. 4.

Row | affinity with respect to mitochondria Complex-1 (mitochondria Complex-1; suggested from dose-response curve) | IC50 (concentration suppressing 50% of bonding between tracer and mitochondrial Complex-1), comparison in words (mitochondria Complex-1; tracer dihydrorotenone[2-isopropyl-3H(N)], 22° C., 30 minutes) | accumulation in the tumor tissue (PET) as the irradiation dose was increased ([1]; X-ray 0, 6, 15, 30 Gy, FIGS. 3 and 4) | accumulation in the tumor tissue (PET) ([1]; before the radiation therapy, tail vein administration) | accumulation in the tumor tissue (PET) ([1]; two days after irradiation with radiation, PET image 40 to 60 minutes after administration) | SMILES | increase in accumulation in proportion to the radiation dose, duration ([1]; seven days after irradiation with radiation, FIGS. 3 and 4)
1 | high affinity | lowest IC50 |  |  |  | CC(C)(C)n1ncc(OCc2ccc(OCCCCF)nc2)c(Cl)c1=O [BCPP-BF] | 
2 |  |  | increase in accumulation | not observed | increased | CC(C)(C)n1ncc(OCc2ccc(OCCOCC[18F])nc2)c(Cl)c1=O [[^18F]BCPP-EF] | continued until seven days after irradiation
